Reference: patent US6559158B1, “Use of methylnaltrexone and related compounds to treat chronic opioid use side affects” (UR Labs, Inc., priority 1997, dated 2003)

Tested on: morphine-induced changes in oral-cecal transit time
Assay: Example 4: morphine-induced delay of oral-cecal transit time in subjects given opioids non-chronically
Assay type: in vivo, human
Conditions: placebo plus 0.05 mg/kg morphine, 12 subjects, mean±SD; baseline 104.6±31.1; p<0.01
Description: Sessions were separated by at least 1 week. Each session lasted approximately 7 hours, and the subjects received one of three injections: (1) placebo plus placebo, (2) placebo plus 0.05 mg/kg morphine, or (3) 0.45 mg/kg methylnaltrexone plus 0.05 mg/kg morphine. Injection I was given at the first session, and the subjects were blinded to the medication. Injections 2 and 3 were given in a random order, and the subjects and observers were blinded to the medication. Injection assignments were prepared by random selection on a computer and were sealed in envelopes.
After completion of the above three injections, we asked six of the subjects, beginning with those who had completed the study last, to return for a fourth injection (0.45 mg/kg methylnaltrexone plus 0.1 mg/kg morphine). This was done to evaluate the effects of methylnaltrexone with a higher does of morphine.
Results of the hydrogen breath test after different injections were analyzed with the use of the Wilcoxon matched-pairs signed-rank test, with p<0.05 considered to be statistically significant.

## CN1CC[C@]23c4c5ccc(O)c4O[C@H]2[C@@H](O)C=C[C@H]3[C@H]1C5.O=S(=O)(O)O [Morphine, morphine sulfate]
  oral-cecal transit time: 163.3 ± 39.8 min
